Measured values from publication PMC7291858, “An Enhanced Variant Designed From DLP4 Cationic Peptide Against Staphylococcus aureus CVCC 546” (Frontiers in Microbiology, 2020).
Peptide text beside a SMILES is read from it.

Key:
S. aureus ATCC 43300 = format: cell-based, Staphylococcus aureus; details: microtiter, serial 2-fold dilutions, 37°C, 16∼20 h, triplicate; – = no activity
Method: (§1) The minimal inhibitory concentration (MIC) was evaluated by a microtiter plate assay ([Wiegand et al., 2008]). Serial 2-fold dilutions of test peptides were placed into a 96-well plate containing identical bacterial inoculum and incubated at 37°C for 16∼20 h. Vancomycin was used as antibiotic control. The MIC value was defined as the lowest peptide concentration where no visible growth occurred. All tests were made in triplicate.

[1] = system: Staphylococcus aureus CVCC 546; experiment: microbe, parasite or virus in culture; format: cell-based; details: Table 1; – = no activity
Method: as §1

CC[C@H](C)[C@@H]1NC(=O)[C@@H]2CSSC[C@@H](C(=O)N[C@@H](CCCNC(=N)N)C(=O)N[C@@H](CCCCN)C(=O)O)NC(=O)[C@H](CC(N)=O)NC(=O)[C@@H]3CSSC[C@H](NC(=O)[C@H](C)NC(=O)[C@H](C)NC(=O)[C@H](Cc4c[nH]cn4)NC(=O)CNC(=O)[C@H](C(C)C)NC(=O)CNC(=O)[C@H](Cc4ccccc4)NC(=O)[C@@H]4CCCN4C(=O)[C@H](CO)NC(=O)[C@H](CC(C)C)NC(=O)[C@H](CC(C)C)NC(=O)[C@H](CC(=O)O)NC(=O)[C@@H](NC(=O)[C@@H](NC(=O)[C@H](C)N)[C@@H](C)O)CSSC[C@H](NC(=O)[C@H](Cc4c[nH]c5ccccc45)NC(=O)CNC(=O)CNC(=O)[C@H](CCCNC(=N)N)NC(=O)[C@H](CCCCN)NC(=O)CNC(=O)[C@H](CCCNC(=N)N)NC(=O)[C@H](C)NC1=O)C(=O)N[C@@H](CC(=O)O)C(=O)NCC(=O)N[C@@H](CCCNC(=N)N)C(=O)N[C@@H](C)C(=O)N[C@@H](C(C)C)C(=O)N3)C(=O)N[C@@H](C)C(=O)N[C@@H](C)C(=O)N[C@@H](Cc1c[nH]cn1)C(=O)N2 [ID16] (HELM PEPTIDE1{A.T.C.D.L.L.S.P.F.G.V.G.H.A.A.C.A.A.H.C.I.A.R.G.K.R.G.G.W.C.D.G.R.A.V.C.N.C.R.K}$PEPTIDE1,PEPTIDE1,3:R3-30:R3|PEPTIDE1,PEPTIDE1,16:R3-36:R3|PEPTIDE1,PEPTIDE1,20:R3-38:R3$$$V2.0; N-terminus and C-terminus assumed; bridges inferred)
A1 (MIC against S. aureus ATCC 43300) (S. aureus ATCC 43300): 8 µg/mL
MIC [1]: 16

CC[C@H](C)[C@@H]1NC(=O)[C@@H]2CSSC[C@@H](C(=O)N[C@@H](CCCNC(=N)N)C(=O)N[C@@H](CC(N)=O)C(=O)O)NC(=O)[C@H](CC(N)=O)NC(=O)[C@@H]3CSSC[C@H](NC(=O)[C@H](C)NC(=O)[C@H](C)NC(=O)[C@H](Cc4c[nH]cn4)NC(=O)CNC(=O)[C@H](C(C)C)NC(=O)CNC(=O)[C@H](Cc4ccccc4)NC(=O)[C@@H]4CCCN4C(=O)[C@H](CO)NC(=O)[C@H](CC(C)C)NC(=O)[C@H](CC(C)C)NC(=O)[C@H](CC(=O)O)NC(=O)[C@@H](NC(=O)[C@@H](NC(=O)[C@H](C)N)[C@@H](C)O)CSSC[C@H](NC(=O)[C@H](Cc4c[nH]c5ccccc45)NC(=O)CNC(=O)CNC(=O)[C@H](CCCNC(=N)N)NC(=O)[C@H](CCCCN)NC(=O)CNC(=O)[C@H](CCCNC(=N)N)NC(=O)[C@H](C)NC1=O)C(=O)N[C@@H](CC(=O)O)C(=O)N[C@@H](CCCCN)C(=O)N[C@@H](CCCNC(=N)N)C(=O)N[C@@H](C)C(=O)N[C@@H](C(C)C)C(=O)N3)C(=O)N[C@@H](C)C(=O)N[C@@H](C)C(=O)N[C@@H](Cc1c[nH]cn1)C(=O)N2 [ID17] (HELM PEPTIDE1{A.T.C.D.L.L.S.P.F.G.V.G.H.A.A.C.A.A.H.C.I.A.R.G.K.R.G.G.W.C.D.K.R.A.V.C.N.C.R.N}$PEPTIDE1,PEPTIDE1,3:R3-30:R3|PEPTIDE1,PEPTIDE1,16:R3-36:R3|PEPTIDE1,PEPTIDE1,20:R3-38:R3$$$V2.0; N-terminus and C-terminus assumed; bridges inferred)
A1 (MIC against S. aureus ATCC 43300) (S. aureus ATCC 43300): 16 µg/mL
MIC [1]: 64

CC[C@H](C)[C@@H]1NC(=O)[C@@H]2CSSC[C@@H](C(=O)N[C@@H](CCCNC(=N)N)C(=O)N[C@@H](CCCCN)C(=O)O)NC(=O)[C@H](CC(N)=O)NC(=O)[C@@H]3CSSC[C@H](NC(=O)[C@H](C)NC(=O)[C@H](C)NC(=O)[C@H](Cc4c[nH]cn4)NC(=O)CNC(=O)[C@H](C(C)C)NC(=O)[C@H](CCCCN)NC(=O)[C@H](Cc4ccccc4)NC(=O)[C@@H]4CCCN4C(=O)[C@H](CO)NC(=O)[C@H](CC(C)C)NC(=O)[C@H](CC(C)C)NC(=O)[C@H](CC(=O)O)NC(=O)[C@@H](NC(=O)[C@@H](NC(=O)[C@H](C)N)[C@@H](C)O)CSSC[C@H](NC(=O)[C@H](Cc4c[nH]c5ccccc45)NC(=O)CNC(=O)CNC(=O)[C@H](CCCNC(=N)N)NC(=O)[C@H](CC(N)=O)NC(=O)CNC(=O)[C@H](CCCNC(=N)N)NC(=O)[C@H](C)NC1=O)C(=O)N[C@@H](CC(=O)O)C(=O)NCC(=O)N[C@@H](CCCNC(=N)N)C(=O)N[C@@H](C)C(=O)N[C@@H](C(C)C)C(=O)N3)C(=O)N[C@@H](C)C(=O)N[C@@H](C)C(=O)N[C@@H](Cc1c[nH]cn1)C(=O)N2 [ID18] (HELM PEPTIDE1{A.T.C.D.L.L.S.P.F.K.V.G.H.A.A.C.A.A.H.C.I.A.R.G.N.R.G.G.W.C.D.G.R.A.V.C.N.C.R.K}$PEPTIDE1,PEPTIDE1,3:R3-30:R3|PEPTIDE1,PEPTIDE1,16:R3-36:R3|PEPTIDE1,PEPTIDE1,20:R3-38:R3$$$V2.0; N-terminus and C-terminus assumed; bridges inferred)
A1 (MIC against S. aureus ATCC 43300) (S. aureus ATCC 43300): 16 µg/mL

CC[C@H](C)[C@@H]1NC(=O)[C@H](C)NC(=O)[C@H](CCCNC(=N)N)NC(=O)[C@H](CCCCN)NC(=O)[C@H](CC(=O)O)NC(=O)[C@@H]2CSSC[C@H](NC(=O)[C@@H](NC(=O)[C@H](C)N)[C@@H](C)O)C(=O)N[C@@H](CC(=O)O)C(=O)N[C@@H](CC(C)C)C(=O)N[C@@H](CC(C)C)C(=O)N[C@@H](CO)C(=O)N3CCC[C@H]3C(=O)N[C@@H](Cc3ccccc3)C(=O)N[C@@H](CCCCN)C(=O)N[C@@H](C(C)C)C(=O)NCC(=O)N[C@@H](Cc3c[nH]cn3)C(=O)N[C@@H](C)C(=O)N[C@@H](C)C(=O)N[C@H]3CSSC[C@H](NC1=O)C(=O)N[C@@H](CC(N)=O)C(=O)N[C@H](C(=O)N[C@@H](CCCNC(=N)N)C(=O)N[C@@H](CCCCN)C(=O)O)CSSC[C@H](NC(=O)[C@H](Cc1c[nH]cn1)NC(=O)[C@H](C)NC(=O)[C@H](C)NC3=O)C(=O)N[C@@H]([C@@H](C)CC)C(=O)N[C@@H](C)C(=O)N[C@@H](CCCNC(=N)N)C(=O)NCC(=O)N[C@@H](CCCCN)C(=O)N[C@@H](CCCNC(=N)N)C(=O)NCC(=O)NCC(=O)N[C@@H](Cc1c[nH]c3ccccc13)C(=O)N2 [ID30] (HELM PEPTIDE1{A.T.C.D.L.L.S.P.F.K.V.G.H.A.A.C.A.A.H.C.I.A.R.G.K.R.G.G.W.C.D.K.R.A.I.C.N.C.R.K}$PEPTIDE1,PEPTIDE1,3:R3-30:R3|PEPTIDE1,PEPTIDE1,16:R3-36:R3|PEPTIDE1,PEPTIDE1,20:R3-38:R3$$$V2.0; N-terminus and C-terminus assumed; bridges inferred)
A1 (MIC against S. aureus ATCC 43300) (S. aureus ATCC 43300): 16 µg/mL
MIC [1]: 32

CC[C@H](C)[C@@H]1NC(=O)[C@@H]2CSSC[C@@H](C(=O)N[C@@H](CCCNC(=N)N)C(=O)N[C@@H](CCCCN)C(=O)O)NC(=O)[C@H](CC(N)=O)NC(=O)[C@@H]3CSSC[C@H](NC(=O)[C@H](C)NC(=O)[C@H](C)NC(=O)[C@H](Cc4c[nH]cn4)NC(=O)CNC(=O)[C@H](C(C)C)NC(=O)[C@H](CCCCN)NC(=O)[C@H](Cc4ccccc4)NC(=O)[C@@H]4CCCN4C(=O)[C@H]([C@@H](C)O)NC(=O)[C@H](CC(C)C)NC(=O)[C@H](CC(C)C)NC(=O)[C@H](CC(=O)O)NC(=O)[C@@H](NC(=O)[C@@H](NC(=O)[C@H](C)N)[C@@H](C)O)CSSC[C@H](NC(=O)[C@H](Cc4c[nH]c5ccccc45)NC(=O)CNC(=O)CNC(=O)[C@H](CCCNC(=N)N)NC(=O)[C@H](CCCCN)NC(=O)CNC(=O)[C@H](CCCNC(=N)N)NC(=O)[C@H](C)NC1=O)C(=O)N[C@@H](CC(=O)O)C(=O)N[C@@H](CCCCN)C(=O)N[C@@H](CCCNC(=N)N)C(=O)N[C@@H](C)C(=O)N[C@@H](C(C)C)C(=O)N3)C(=O)N[C@@H](C)C(=O)N[C@@H](C)C(=O)N[C@@H](Cc1c[nH]cn1)C(=O)N2 [ID6] (HELM PEPTIDE1{A.T.C.D.L.L.T.P.F.K.V.G.H.A.A.C.A.A.H.C.I.A.R.G.K.R.G.G.W.C.D.K.R.A.V.C.N.C.R.K}$PEPTIDE1,PEPTIDE1,3:R3-30:R3|PEPTIDE1,PEPTIDE1,16:R3-36:R3|PEPTIDE1,PEPTIDE1,20:R3-38:R3$$$V2.0; N-terminus and C-terminus assumed; bridges inferred)
A1 (MIC against S. aureus ATCC 43300) (S. aureus ATCC 43300): 8 µg/mL
MIC [1]: 16

CC[C@H](C)[C@@H]1NC(=O)[C@@H]2CSSC[C@@H](C(=O)N[C@@H](CCCNC(=N)N)C(=O)N[C@@H](CCCCN)C(=O)O)NC(=O)[C@H](CC(N)=O)NC(=O)[C@@H]3CSSC[C@H](NC(=O)[C@H](C)NC(=O)[C@H](C)NC(=O)[C@H](Cc4c[nH]cn4)NC(=O)[C@H](CCCCN)NC(=O)[C@H](C(C)C)NC(=O)[C@H](CCCCN)NC(=O)[C@H](Cc4ccccc4)NC(=O)[C@@H]4CCCN4C(=O)[C@H](CO)NC(=O)[C@H](CC(C)C)NC(=O)[C@H](CC(C)C)NC(=O)[C@H](CC(=O)O)NC(=O)[C@@H](NC(=O)[C@@H](NC(=O)[C@H](C)N)[C@@H](C)O)CSSC[C@H](NC(=O)[C@H](Cc4c[nH]c5ccccc45)NC(=O)CNC(=O)CNC(=O)[C@H](CCCNC(=N)N)NC(=O)[C@H](CCCCN)NC(=O)CNC(=O)[C@H](CCCNC(=N)N)NC(=O)[C@H](C)NC1=O)C(=O)N[C@@H](CC(=O)O)C(=O)N[C@@H](CCCCN)C(=O)N[C@@H](CCCNC(=N)N)C(=O)N[C@@H](C)C(=O)N[C@@H](C(C)C)C(=O)N3)C(=O)N[C@@H](C)C(=O)N[C@@H](C)C(=O)N[C@@H](Cc1c[nH]cn1)C(=O)N2 [ID9] (HELM PEPTIDE1{A.T.C.D.L.L.S.P.F.K.V.K.H.A.A.C.A.A.H.C.I.A.R.G.K.R.G.G.W.C.D.K.R.A.V.C.N.C.R.K}$PEPTIDE1,PEPTIDE1,3:R3-30:R3|PEPTIDE1,PEPTIDE1,16:R3-36:R3|PEPTIDE1,PEPTIDE1,20:R3-38:R3$$$V2.0; N-terminus and C-terminus assumed; bridges inferred)
A1 (MIC against S. aureus ATCC 43300) (S. aureus ATCC 43300): 16 µg/mL
